Experimental data as given in patent publication US11771738B2 (Zoetis Services LLC, priority 2018, dated 2023).
Where two headings read alike, the source gives them in different places.

Key:
Type in all cases: cell-based
[1] = tested on: third stage larvae of Haemonchus contortus; assay: Haemonchus contortus, Larvae Stage 3 (HcL3) In Vitro Assay; conditions: Haemonchus contortus, 96 h
D. immitis L4 larvae = assay: Dirofilaria immitis, L4 Stage (DiL4) In Vitro Assay; conditions: for minimal effective concentration: Dirofilaria immitis, 72 h, read-out: DiL4 MED, Minimum Effective Dose, D. immitis L4 larvae motility, in vitro; for DiMf/DiL4: larval stage selectivity, ratio of DiMf MED to DiL4 MED
[2] = tested on: microfilariae of Dirofilaria immitis; assay: Dirofilaria immitis, Microfilaria (DiMf) In Vitro Assay; conditions: Dirofilaria immitis, 72 h, read-out: DiMf MED, Minimum Effective Dose, D. immitis microfilariae motility, in vitro
[3] = read-out: HcL3 MED, Haemonchus contortus third stage larvae in vitro, class mark appended to the Ex # in Table 3
[4] = read-out: HcL3 MED, Minimum Effective Dose, H. contortus third stage larvae, approximately 96 hours
[5] = read-out: HcL3 MED, approximately 96 hours incubation, multiple-resistant field isolate

## CC(C)C[C@H]1C(=O)O[C@H](Cc2ccc(Cc3cncnc3C(F)F)cc2)C(=O)N(C)[C@@H](CC(C)C)C(=O)O[C@H](C)C(=O)N(C)[C@@H](CC(C)C)C(=O)O[C@H](Cc2ccc(Cc3cncnc3C(F)F)cc2)C(=O)N(C)[C@@H](CC(C)C)C(=O)O[C@H](C)C(=O)N1C [Example 3-321, (3S,6R,9S,12R,15S,18R,21S,24R)-6,18-bis(4-((4-(difluoromethyl)pyrimidin-5-yl)methyl)benzyl)-3,9,15,21-tetraisobutyl-4,10,12,16,22,24-hexamethyl-1,7,13,19-tetraoxa-4,10,16,22-tetraazacyclotetracosan-2,5,8,11,14,17,20,23-octaone]
[1]; [3]
  minimal effective concentration: < 1 µM
[1]; [4]
  minimal effective concentration: 0.3 µM
[1]; [5]
  minimal effective concentration: ≤ 1 µM
D. immitis L4 larvae
  minimal effective concentration: 2e-05 µM
  DiMf/DiL4: 2.5
[2]
  minimal effective concentration: 5e-05 µM

## CC(C)C[C@H]1C(=O)O[C@H](Cc2ccc(Cc3cnccc3C#N)cc2)C(=O)N(C)[C@@H](CC(C)C)C(=O)O[C@H](C)C(=O)N(C)[C@@H](CC(C)C)C(=O)O[C@H](Cc2ccc(Cc3cnccc3C#N)cc2)C(=O)N(C)[C@@H](CC(C)C)C(=O)O[C@H](C)C(=O)N1C [Example 3-307, 3,3′-(((((2R,5S,8R,11S,14R,17S,20R,23S)-5,11,17,23-tetraisobutyl-4,8,10,16,20,22-hexamethyl-3,6,9,12,15,18,21,24-octaoxo-1,7,13,19-tetraoxa-4,10,16,22-tetraazacyclotetracosane-2,14-diyl)bis(methylene))bis(4,1-phenylene))bis(methylene))diisonicotinonitrile]
[1]; [3]
  minimal effective concentration: < 1 µM
[1]; [4]
  minimal effective concentration: 1 µM
[1]; [5]
  minimal effective concentration: ≤ 1 µM
D. immitis L4 larvae
  minimal effective concentration: 0.0001 µM
  DiMf/DiL4: 3
[2]
  minimal effective concentration: 0.0003 µM

## CC(C)C[C@H]1C(=O)O[C@H](Cc2ccc(Cc3ccsc3)cc2)C(=O)N(C)[C@@H](CC(C)C)C(=O)O[C@H](C)C(=O)N(C)[C@@H](CC(C)C)C(=O)O[C@H](Cc2ccccc2)C(=O)N(C)[C@@H](CC(C)C)C(=O)O[C@H](C)C(=O)N1C [Example 4-50, (3S,6R,9S,12R,15S,18R,21S,24R)-6-benzyl-3,9,15,21-tetraisobutyl-4,10,12,16,22,24-hexamethyl-18-(4-(thiophen-3-ylmethyl)benzyl)-1,7,13,19-tetraoxa-4,10,16,22-tetraazacyclotetracosan-2,5,8,11,14,17,20,23-octaone]
[1]; read-out: HcL3 MED (symbol after Ex#), approximately 96 hours incubation, multiple-resistant field isolate
  minimal effective concentration: 1 to 3.3 µM
[1]; [4]
  minimal effective concentration: 1.8 µM
D. immitis L4 larvae
  minimal effective concentration: 0.001 µM
  DiMf/DiL4: 10
[2]
  minimal effective concentration: 0.01 µM

## Cc1cnccc1Cc1ccc(C[C@H]2OC(=O)[C@H](CC(C)C)N(C)C(=O)[C@@H](C)OC(=O)[C@H](CC(C)C)N(C)C(=O)[C@@H](Cc3ccc(Cc4ccncc4F)cc3)OC(=O)[C@H](CC(C)C)N(C)C(=O)[C@@H](C)OC(=O)[C@H](CC(C)C)N(C)C2=O)cc1 [Example 3-309, (3S,6R,9S,12R,15S,18R,21S,24R)-6-(4-((3-fluoropyridin-4-yl)methyl)benzyl)-3,9,15,21-tetraisobutyl-4,10,12,16,22,24-hexamethyl-18-(4-((3-methylpyridin-4-yl)methyl)benzyl)-1,7,13,19-tetraoxa-4,10,16,22-tetraazacyclotetracosan-2,5,8,11,14,17,20,23-octaone]
[1]; [3]
  minimal effective concentration: 1 to 3.3 µM
[1]; [4]
  minimal effective concentration: 3.3 µM
D. immitis L4 larvae
  minimal effective concentration: 0.00055 µM
  DiMf/DiL4: 5.5
[2]
  minimal effective concentration: 0.003 µM

## CC(C)C[C@H]1C(=O)O[C@H](Cc2ccc(Cc3cnccc3C(F)(F)F)cc2)C(=O)N(C)[C@@H](CC(C)C)C(=O)O[C@H](C)C(=O)N(C)[C@@H](CC(C)C)C(=O)O[C@H](Cc2ccc(Cc3cnccc3C(F)(F)F)cc2)C(=O)N(C)[C@@H](CC(C)C)C(=O)O[C@H](C)C(=O)N1C [Example 3-333, (3S,6R,9S,12R,15S,18R,21S,24R)-3,9,15,21-tetraisobutyl-4,6,10,16,18,22-hexamethyl-12,24-bis(4-((4-(trifluoromethyl)pyridin-3-yl)methyl)benzyl)-1,7,13,19-tetraoxa-4,10,16,22-tetraazacyclotetracosan-2,5,8,11,14,17,20,23-octaone]
[1]; [3]
  minimal effective concentration: < 1 µM
[1]; [5]
  minimal effective concentration: ≤ 1 µM
D. immitis L4 larvae
  minimal effective concentration: 0.0002 µM
  DiMf/DiL4: 17
[2]
  minimal effective concentration: 0.003 µM

## COc1nccc(Cc2ccc(C[C@H]3OC(=O)[C@H](CC(C)C)N(C)C(=O)[C@@H](C)OC(=O)[C@H](CC(C)C)N(C)C(=O)[C@@H](Cc4ccc(Cc5ccnc(OC)c5OC)cc4)OC(=O)[C@H](CC(C)C)N(C)C(=O)[C@@H](C)OC(=O)[C@H](CC(C)C)N(C)C3=O)cc2)c1OC [Example 3-334, (3S,6R,9S,12R,15S,18R,21S,24R)-6,18-bis(4-((2,3-dimethoxypyridin-4-yl)methyl)benzyl)-3,9,15,21-tetraisobutyl-4,10,12,16,22,24-hexamethyl-1,7,13,19-tetraoxa-4,10,16,22-tetraazacyclotetracosan-2,5,8,11,14,17,20,23-octaone]
[1]; [3]
  minimal effective concentration: < 1 µM
[1]; [4]
  minimal effective concentration: 0.1 µM
[1]; [5]
  minimal effective concentration: ≤ 1 µM
D. immitis L4 larvae
  minimal effective concentration: 0.0003 µM
  DiMf/DiL4: 10
[2]
  minimal effective concentration: 0.003 µM

## CC(C)C[C@H]1C(=O)O[C@H](Cc2ccc(Cc3sccc3Cl)cc2)C(=O)N(C)[C@@H](CC(C)C)C(=O)O[C@H](C)C(=O)N(C)[C@@H](CC(C)C)C(=O)O[C@H](Cc2ccc(Cc3sccc3Cl)cc2)C(=O)N(C)[C@@H](CC(C)C)C(=O)O[C@H](C)C(=O)N1C [Example 3-87, (3S,6R,9S,12R,15S,18R,21S,24R)-6,18-bis(4-((3-chlorothiophen-2-yl)methyl)benzyl)-3,9,15,21-tetraisobutyl-4,10,12,16,22,24-hexamethyl-1,7,13,19-tetraoxa-4,10,16,22-tetraazacyclotetracosan-2,5,8,11,14,17,20,23-octaone]
[1]; [3]
  minimal effective concentration: < 1 µM
[1]; [4]
  minimal effective concentration: 0.3 µM
[1]; [5]
  minimal effective concentration: ≤ 1 µM
D. immitis L4 larvae
  minimal effective concentration: 0.0003 µM
  DiMf/DiL4: 333
[2]
  minimal effective concentration: 0.1 µM

## CC(C)C[C@H]1C(=O)O[C@H](Cc2ccc(Cc3cncnc3C3CC3)cc2)C(=O)N(C)[C@@H](CC(C)C)C(=O)O[C@H](C)C(=O)N(C)[C@@H](CC(C)C)C(=O)O[C@H](Cc2ccc(Cc3cncnc3C3CC3)cc2)C(=O)N(C)[C@@H](CC(C)C)C(=O)O[C@H](C)C(=O)N1C [Example 3-289, (3S,6R,9S,12R,15S,18R,21S,24R)-6,18-bis(4-((4-cyclopropylpyrimidin-5-yl)methyl)benzyl)-3,9,15,21-tetraisobutyl-4,10,12,16,22,24-hexamethyl-1,7,13,19-tetraoxa-4,10,16,22-tetraazacyclotetracosan-2,5,8,11,14,17,20,23-octaone]
[1]; [3]
  minimal effective concentration: 1 to 3.3 µM
[1]; [4]
  minimal effective concentration: 3.3 µM
D. immitis L4 larvae
  minimal effective concentration: 0.0005 µM
  DiMf/DiL4: 6
[2]
  minimal effective concentration: 0.003 µM
